According to patent publication US20140349945A1, “PEG-AMINO ACID-OLIGOPEPTIDE-IRINOTECAN DRUG CONJUGATES AND THE PHARMACEUTICAL COMPOSITIONS” (JENKEM TECHNOLOGY CO., LTD. (BEIJING), priority 2011, published 2014):
Marks after values point to notes of the source that are not given here.

Columns and labels:
[1] = tested on: human lung cancer cells A549; experiment: Inhibitory effect on transplanted tumors of human lung cancer cells A549 in nude mice; conditions: for Weight At the beginning: A549 tumor-bearing nude mice, baseline
Text: (§1) BALB/cA nude mice (male, 5-6 weeks old, weighed 18±2 g) were provided by the Shanghai Institute of Materia Medica, Chinese Academy of Sciences. […] Animal numbers of each group: 12 mice in negative control group and 6 mice in treatment group.
Human lung tumor cell strains A549 were purchased from ATCC. 5×10^6 cells were subcutaneously inoculated in the right armpit of each nude mouse. The transplanted tumors were transferred in nude mice for two generations before utilization.
(§2) Vigorous tumor tissues were cut into pieces of about 1.5 mm3 and then subcutaneously inoculated to the right armpit nude mice under sterile conditions. The diameters of the subcutaneous transplanted tumors were measured using a vernier caliper. The animals were randomly grouped when the tumors grew to 100-200 mm3.
(§3) After the administration, the animals were observed consecutively for one week. During the whole experiment, diameters of the transplanted tumors were measured and the animals were weighed two times a week. The tumor volume (TV) was calculated as follows: TV=½×a×b^2, wherein, a and b represented length and width respectively. According to the results of measurements, the relative tumor volumes (RTV) were calculated as follows: RTV=Vt/V0. Wherein, V0 were the volumes measured at administration after caging (i.e. d0), Vt were the tumor volumes of every measurements.

[2] = tested on: human colon cancer cells HT-29; experiment: Inhibitory effect on transplanted tumors of human colon cancer cells HT-29 in nude mice; conditions: for Weight At the beginning / Weight At lats: HT-29 tumor-bearing nude mice; for Weight At the beginning: baseline; for Weight At lats: end of experiment
Text: as §1
Human colon tumor cell strains HT-29 were purchased from ATCC. 5×10^6 cells were subcutaneously inoculated in the right armpit of each nude mouse. The transplanted tumors were transferred in nude mice for two generations before utilization.
Vigorous tumor tissues were cut into pieces of about 1.5 mm^3 and then subcutaneously inoculated to the right armpit nude mice under sterile conditions. The diameters of the subcutaneous transplanted tumors were measured using a vernier caliper. The animals were randomly grouped when the tumors grew to 100-200 mm^3.
as §3

[3] = tested on: human colon cancer cells HCT-116; experiment: Inhibitory effect on transplanted tumors of human colon cancer cells HCT-116 in nude mice; conditions: for Weight At the beginning / Weight At lats: HCT-116 tumor-bearing nude mice; for Weight At the beginning: baseline; for Weight At lats: end of experiment
Text: BALB/cA nude mice (male, 4-6 weeks old, weighed 19±2 g) were provided by the Shanghai Institute of Materia Medica, Chinese Academy of Sciences. […] Animal numbers of each group: 12 mice in negative control group and 6 mice in treatment group.
5×10^6 cells were subcutaneously inoculated in the right armpit of each nude mouse. The transplanted tumors were transferred in nude mice for two generations before utilization.
as §2, §3

[4] = tested on: human ovarian cancer cells SKOV-3; experiment: Inhibitory effect on transplanted tumor of human ovarian cancer cells SKOV-3 in nude mice; conditions: for TV (mean ± SD) d 28 / number of animals with tumor regression: d 28; for number of animals with tumor regression: 6 mice per group; for Weight At the beginning / Weight At lats: SKOV-3 tumor-bearing nude mice; for Weight At the beginning: baseline; for Weight At lats: end of experiment
Text: as §1
Human […] tumor cell strains SKOV-3 were purchased from ATCC. 5×10^6 cells were subcutaneously inoculated in the right armpit of each nude mouse. The transplanted tumors were transferred in nude mice for two generations before utilization.
as §2, §3

[5] = tested on: human colon cancer cells SW-620; experiment: Inhibitory effect on transplanted tumor of human colon cancer cells SW-620 in nude mice; conditions: for RTV mean ± SD) / TV (mean ± SD) d 28 / number of animals with tumor regression: SW-620, d 28; for number of animals with tumor regression: 6 mice per group; for Weight At the beginning / Weight At last: SW-620 tumor-bearing nude mice; for Weight At the beginning: baseline; for Weight At last: end of experiment
Text: as §1
Human […] tumor cell strains SW-620 were purchased from ATCC. 5×10^6 cells were subcutaneously inoculated in the right armpit of each nude mouse. The transplanted tumors were transferred in nude mice for two generations before utilization.
as §3, with “Vigorous tumor tissues were cut into pieces of about 1.5 mm3 and then subcutaneously inoculated to the right armpit nude mice under sterile conditions. The diameters of the subcutaneous transplanted tumors were measured using a vernier caliper. The animals were randomly grouped when the tumors grew to 100-200 mm3. […] After” for “After”

## CCc1c2c(nc3ccc(OC(=O)N4CCC(N5CCCCC5)CC4)cc13)-c1cc3c(c(=O)n1C2)COC(=O)[C@]3(O)CC [CPT-11, Irinotecan]
[1]; 15 mg/kg, iv q3w × 3w, A549, d 28
  TV (mean ± SD) d 28: 831 ± 305 mm^3
[1]; 15 mg/kg, iv q3w × 3w
  Weight At the beginning: 18.1 g
[1]; 45 mg/kg, iv qw × 3w, A549, d 28
  RTV mean ± SD): 9.87 ± 4.87 ^
[1]; 45 mg/kg, iv qw × 3w
  Weight At the beginning: 18.4 g
[2]; 15 mg/kg, iv q3w × 3w
  Weight At the beginning: 18.2 g
  Weight At lats: 16.0 g
[2]; 45 mg/kg, iv qw × 3w
  Weight At the beginning: 18.6 g
  Weight At lats: 16.2 g
[2]; two groups treated with different doses (15 and 45 mg/kg), HT-29
  body weight change during the whole experiment (in words): underwent weight loss
[3]; 15 mg/kg, iv q3w × 3w, HCT-116
  TV (mean ± SD) d 28: 322 ± 37 mm^3
[3]; 15 mg/kg, iv q3w × 3w
  Weight At the beginning: 19.1 g
  Weight At lats: 16.6 g
[3]; 45 mg/kg group, compared with solvent control group, HCT-116
  body weight change during the whole experiment (in words): slightly higher weight loss
[3]; 45 mg/kg, iv qw × 3w, HCT-116
  TV (mean ± SD) d 28: 512 ± 99 mm^3
[3]; 45 mg/kg, iv qw × 3w
  Weight At the beginning: 19.2 g
  Weight At lats: 15.1 g
[4]; 15 mg/kg, iv q3w × 3w, SKOV-3
  TV (mean ± SD) d 28: 924 ± 443 mm^3
  number of animals with tumor regression: 0
[4]; 15 mg/kg, iv q3w × 3w
  Weight At the beginning: 18.9 g
  Weight At lats: 18.0 g
[4]; 45 mg/kg, iv qw × 3w, SKOV-3
  TV (mean ± SD) d 28: 1753 ± 878 mm^3
  number of animals with tumor regression: 0
[4]; 45 mg/kg, iv qw × 3w
  Weight At the beginning: 19.7 g
  Weight At lats: 18.4 g
[4]; CPT-11 both dose groups, CPT-1 45 mg/kg, SKOV-3
  body weight change during the whole experiment (in words): slight weight loss
[5]; 15 mg/kg, iv q3w × 3w
  RTV mean ± SD): 0.02 ± 0.02**^,
  TV (mean ± SD) d 28: 2.09 ± 1.51 mm^3
  number of animals with tumor regression: 0
  Weight At the beginning: 19.7 g
  Weight At last: 24.2 g
[5]; 45 mg/kg, iv qw × 3w
  RTV mean ± SD): 6.60 ± 1.56
  TV (mean ± SD) d 28: 877 ± 324 mm^3
  number of animals with tumor regression: 0
  Weight At the beginning: 18.8 g
  Weight At last: 21.8 g
